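Interpolation was linear, between the two tested concentrations surrounding the appropriate level; five concentrations were tested over 48 hours in 96-well plates. GI50 = concentration required for 50% inhibition of growth.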 Activity calls are given as the source filed them. Rule as the data show it: active = GI50 up to about 1.1 µM and inactive = higher.
What was measured:
Experiment in all cases: NCI tumour cell line growth inhibition, 48 h
786-0 = system: 786-0
A498 = system: A498
A549 = system: A549
ACHN = system: ACHN
BT-549 = system: BT-549
CAKI-1 = system: CAKI-1
CCRF-CEM = system: CCRF-CEM
COLO 205 = system: COLO 205
DU-145 = system: DU-145
EKVX = system: EKVX
HCC 2998 = system: HCC 2998
HCT-116 = system: HCT-116
HCT-15 = system: HCT-15
HL-60 = system: HL-60
HOP-62 = system: HOP-62
HOP-92 = system: HOP-92
HT-29 = system: HT-29
Hs-578T = system: Hs-578T
K562 = system: K562
KM12 = system: KM12
LOX IMVI = system: LOX IMVI
M14 = system: M14
MCF7 = system: MCF7
MDA-MB-231 = system: MDA-MB-231
MDA-MB-435 = system: MDA-MB-435
MDA-N = system: MDA-N
MOLT-4 = system: MOLT-4
Malme-3M = system: Malme-3M
NCI-H226 = system: NCI-H226
NCI-H23 = system: NCI-H23
NCI-H460 = system: NCI-H460
NCI-H522 = system: NCI-H522
NCI/ADR-RES = system: NCI/ADR-RES
OVCAR-3 = system: OVCAR-3
OVCAR-4 = system: OVCAR-4
OVCAR-5 = system: OVCAR-5
OVCAR-8 = system: OVCAR-8
PC-3 = system: PC-3
RXF 393 = system: RXF 393
SF-268 = system: SF-268
SF-295 = system: SF-295
SF-539 = system: SF-539
SK-MEL-28 = system: SK-MEL-28
SK-MEL-2 = system: SK-MEL-2
SK-MEL-5 = system: SK-MEL-5
SK-OV-3 = system: SK-OV-3
SN12C = system: SN12C
SNB-19 = system: SNB-19
SNB-75 = system: SNB-75
SR = system: SR
SW-620 = system: SW-620
T47D = system: T47D
TK-10 = system: TK-10
U-251 = system: U-251
UACC-257 = system: UACC-257
UACC-62 = system: UACC-62
UO-31 = system: UO-31

Structure (SMILES): O=C(c1ccco1)N(C(=S)OC12CC3CC(CC(C3)C1)C2)c1ccccc1
- GI50 (786-0): 31.2 µM (inactive)
- GI50 (A498): 23.3 µM (inactive)
- GI50 (A549): 32.2 µM (inactive)
- GI50 (ACHN): 27.1 µM (inactive)
- GI50 (BT-549): 34.5 µM (inactive)
- GI50 (CAKI-1): 33.3 µM (inactive)
- GI50 (CCRF-CEM): 16.9 µM (inactive)
- GI50 (COLO 205): 16.4 µM (inactive)
- GI50 (DU-145): 52.8 µM (inactive)
- GI50 (EKVX): 18.8 µM (inactive)
- GI50 (HCC 2998): 25.1 µM (inactive)
- GI50 (HCT-116): 19.9 µM (inactive)
- GI50 (HCT-15): 28.2 µM
- GI50 (HL-60): 19.3 µM (inactive)
- GI50 (HOP-62): 28.2 µM (inactive)
- GI50 (HOP-92): 19.5 µM (inactive)
- GI50 (HT-29): 33.5 µM (inactive)
- GI50 (Hs-578T): 32.6 µM (inactive)
- GI50 (K562): 28.6 µM (inactive)
- GI50 (KM12): 31.2 µM (inactive)
- GI50 (LOX IMVI): 26.7 µM (inactive)
- GI50 (M14): 20.9 µM (inactive)
- GI50 (MCF7): 26.2 µM (inactive)
- GI50 (MDA-MB-231): 31.8 µM (inactive)
- GI50 (MDA-MB-435): 28.9 µM (inactive)
- GI50 (MDA-N): 29.4 µM (inactive)
- GI50 (MOLT-4): 24.4 µM (inactive)
- GI50 (Malme-3M): 26.8 µM (inactive)
- GI50 (NCI-H226): 27.2 µM (inactive)
- GI50 (NCI-H23): 27.8 µM (inactive)
- GI50 (NCI-H460): 30.8 µM (inactive)
- GI50 (NCI-H522): 19.9 µM (inactive)
- GI50 (NCI/ADR-RES): 28.6 µM (inactive)
- GI50 (OVCAR-3): 28.1 µM (inactive)
- GI50 (OVCAR-4): 36.1 µM (inactive)
- GI50 (OVCAR-5): 39.7 µM (inactive)
- GI50 (OVCAR-8): 31.3 µM (inactive)
- GI50 (PC-3): 20.5 µM (inactive)
- GI50 (RXF 393): 13.7 µM (inactive)
- GI50 (SF-268): 32.9 µM (inactive)
- GI50 (SF-295): 27.7 µM (inactive)
- GI50 (SF-539): 20.2 µM (inactive)
- GI50 (SK-MEL-28): 37.9 µM (inactive)
- GI50 (SK-MEL-2): 21.2 µM (inactive)
- GI50 (SK-MEL-5): 17.7 µM (inactive)
- GI50 (SK-OV-3): 23.4 µM (inactive)
- GI50 (SN12C): 27.9 µM (inactive)
- GI50 (SNB-19): 34.7 µM (inactive)
- GI50 (SNB-75): 48.5 µM (inactive)
- GI50 (SR): 25.7 µM (inactive)
- GI50 (SW-620): 29 µM (inactive)
- GI50 (T47D): 47.2 µM (inactive)
- GI50 (TK-10): 42.3 µM (inactive)
- GI50 (U-251): 23.3 µM (inactive)
- GI50 (UACC-257): 30.9 µM (inactive)
- GI50 (UACC-62): 23.4 µM (inactive)
- GI50 (UO-31): 24.9 µM (inactive)
